Assay results: ChEMBL document CHEMBL1138473, “NMR and molecular dynamics study of the binding mode of naphthalene-N-sulfonyl-D-glutamic acid derivatives: novel MurD ligase inhibitors” (J Med Chem, 2009)

Experiment: Inhibition of Escherichia coli BL21-A1 MurD

| Structure (SMILES) | IC50 [µM] |
| --- | --- |
| CCCCOc1ccc2cc(S(=O)(=O)N[C@@H](CCC(=O)O)C(=O)O)ccc2c1 | 710 |
| O=C(O)CC[C@@H](NS(=O)(=O)c1ccc2ccccc2c1)C(=O)O | 810 |
| O=C(O)CC[C@@H](NS(=O)(=O)c1ccc2cc(OC3CCCC3)ccc2c1)C(=O)O | 400 |
| O=C(O)CC[C@@H](NS(=O)(=O)c1ccc2cc(OCC(=O)O)ccc2c1)C(=O)O | 630 |

The next compounds have a lower IC50 than those just listed; values first:

| IC50 [µM] | Structure (SMILES) |
| --- | --- |
| 280 | CCCCOc1ccc2cc(S(=O)(=O)N[C@H](CCC(=O)O)C(=O)O)ccc2c1 |
| 239 | O=C(O)CC[C@@H](NS(=O)(=O)c1ccc2cc(OCc3ccccc3)ccc2c1)C(=O)O |
| 192 | CCOC(=O)COc1ccc2cc(S(=O)(=O)N[C@H](CCC(=O)O)C(=O)O)ccc2c1 |
| 180 | CCCCOc1ccc2ccc(S(=O)(=O)N[C@H](CCC(=O)O)C(=O)O)cc2c1 |
| 132 | O=C(O)CC[C@@H](NS(=O)(=O)c1ccc2cc(OCCCc3ccccc3)ccc2c1)C(=O)O |
